≈ marks a conversion by molar mass, not a printed value. Calls of active or inactive are those of the source. The calls are words filed in the database; no cut-off is given here.
Experiments:
[1] = Inhibition of autoxidation of pure triacylglycerols of sunflower oil at 1 mM by iodometric analysis; type: toxicity; details: 1000 µM
[2] = test system: Radical scavenging activity; test: Antioxidant activity assessed as DPPH radical scavenging activity at 3.6 mM after 20 min; type: functional
[3] = test system: Radical scavenging activity; test: Antioxidant activity assessed as DPPH radical scavenging activity at 3.6 mM after 10 min; type: functional
[4] = test system: Radical scavenging activity; test: Antioxidant activity assessed as DPPH radical scavenging activity at 1.8 mM after 20 min; type: functional
[5] = test system: Radical scavenging activity; test: Antioxidant activity assessed as DPPH radical scavenging activity at 0.9 mM after 20 min; type: functional
[6] = test system: Radical scavenging activity; test: Antioxidant activity assessed as DPPH radical scavenging activity at 1.8 mM after 10 min; type: functional
[7] = test system: Radical scavenging activity; test: Antioxidant activity assessed as DPPH radical scavenging activity at 0.9 mM after 10 min; type: functional
[8] = molecular target: T1, Tyrosinase (Agaricus bisporus) (UniProt O42713); test: Inhibition of monophenolase activity of mushroom tyrosinase using L-tyrosine as substrate after 30 min by dopachrome method
T1 sequence (whole entry): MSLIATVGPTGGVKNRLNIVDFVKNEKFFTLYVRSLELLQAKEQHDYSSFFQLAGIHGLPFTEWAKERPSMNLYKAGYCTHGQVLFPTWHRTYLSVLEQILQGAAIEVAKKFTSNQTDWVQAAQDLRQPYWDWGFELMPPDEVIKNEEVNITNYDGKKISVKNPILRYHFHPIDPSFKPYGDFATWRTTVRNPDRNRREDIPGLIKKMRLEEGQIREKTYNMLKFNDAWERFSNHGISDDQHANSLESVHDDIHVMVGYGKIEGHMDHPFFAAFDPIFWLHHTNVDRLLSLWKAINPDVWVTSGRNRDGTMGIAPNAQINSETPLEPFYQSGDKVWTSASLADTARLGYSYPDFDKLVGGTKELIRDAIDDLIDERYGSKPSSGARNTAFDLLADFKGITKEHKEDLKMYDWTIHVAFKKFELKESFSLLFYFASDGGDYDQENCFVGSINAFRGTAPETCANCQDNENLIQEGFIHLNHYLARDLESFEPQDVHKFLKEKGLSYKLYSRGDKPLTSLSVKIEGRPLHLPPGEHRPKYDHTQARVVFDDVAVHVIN

Streptococcus pyogenes = test: Antimicrobial activity against Streptococcus pyogenes 10535 assessed as growth inhibition after 24 hr by serial dilution method; type: functional; details: Streptococcus pyogenes, 10535, 24 h
Staphylococcus aureus = test: Antimicrobial activity against Staphylococcus aureus 209 assessed as growth inhibition after 24 hr by serial dilution method; type: functional; details: Staphylococcus aureus, 209, 24 h

SMILES	inhibition (INH) [1]	Activity [2] [%]	Activity [3] [%]	Activity [4] [%]	Activity [5] [%]	Activity [6] [%]	Activity [7] [%]	inhibition [8]	MIC (Streptococcus pyogenes) [µg/mL]	MIC (Staphylococcus aureus) [µg/mL]
COC(=O)[C@H](Cc1ccc(O)c(O)c1)NC(=O)/C=C/c1ccc(O)cc1	Active	67.1	64.4	34.8	19.1	33.3	18	Active		
CC(C)(C)OC(=O)[C@H](Cc1ccccc1)NC(=O)/C=C/c1ccc(O)cc1		2.92	2.46	2.23	2.3	1.89	1.97			
COC(=O)[C@H](Cc1ccc(O)cc1)NC(=O)/C=C/c1ccc(O)cc1		1.88	1.44	1.42	0.71	1.04	0.64	Active		
Cc1c(C)c2c(c(C)c1O)CCC(C)(CCCC(C)CCCC(C)CCCC(C)C)O2 (racemic)		73.3	62.9	46.8	24.8	40.8	23.2			
COc1cc(/C=C/C(=O)N[C@@H](Cc2ccccc2)C(=O)OC(C)(C)C)ccc1O		36.9	30.4	23.6	13.5	19.5	10.9			
Oc1ccc(O)cc1								Active		
COc1cc(/C=C/C(=O)N[C@@H](Cc2ccccc2)C(=O)OC(C)(C)C)cc(OC)c1O		50.6	46.8	28.2	16.7	25	13.7			
O=C(O)/C=C/c1ccccc1 [CINNAMIC ACID]	Not Active	0.35	0.32	0.35	0.32	0.32	0.3			
COC(=O)[C@H](Cc1ccc(O)c(O)c1)NC(=O)/C=C/c1ccccc1 [N-CINNAMOYL-DOPA METHYL ESTER]	Active	88.1	85	48.4	26.6	45.5	24.4			
O=C(O)/C=C/c1ccc(O)c(O)c1 [CAFFEIC ACID]	Active	91.8	88	64.3	34.1	62.1	33.5		125 (≈ 694 µM)	125 (≈ 694 µM)
COC(=O)[C@H](Cc1ccccc1)NC(=O)/C=C/c1ccccc1		2.58	2.18	2.6	2.52	2.39	2			
COC(=O)[C@H](Cc1ccc(O)c(O)c1)NC(=O)/C=C/c1cc(OC)c(O)c(OC)c1	Active	82.8	80.9	45.8	25.4	43.9	23.8			
COC(=O)[C@H](Cc1ccc(O)c(O)c1)NC(=O)/C=C/c1ccc(O)c(O)c1 [N-CAFFEOYL-DOPA METHYL ESTER]	Active	88.8	88.7	86	50.5	82.5	44.8			
COC(=O)[C@H](Cc1ccc(O)cc1)NC(=O)/C=C/c1cc(OC)c(O)c(OC)c1		45.3	43	25	15.6	23.1	14.2		250 (≈ 623 µM)	125 (≈ 311 µM)
COC(=O)[C@H](Cc1ccc(O)cc1)NC(=O)/C=C/c1ccc(O)c(O)c1		90.2	89.6	52.5	28.7	51	27.4			
O=C(/C=C/c1ccc(O)c(O)c1)NCCc1c[nH]c2ccccc12									62.5 (≈ 194 µM)	125 (≈ 388 µM)
COc1cc(/C=C/C(=O)NCCc2ccc(O)cc2)ccc1O [N-TRANS-FERULOYL TYRAMINE]									125 (≈ 399 µM)	62.5 (≈ 199 µM)
O=c1c(O)c(-c2ccc(O)c(O)c2)oc2cc(O)cc(O)c12		78	76	58.4	45.2	46.7	40.4			

SMILES	inhibition (INH) [1]	Activity [2] [%]	Activity [3] [%]	Activity [4] [%]	Activity [5] [%]	Activity [6] [%]	Activity [7] [%]	inhibition [8]	MIC (Streptococcus pyogenes) [µg/mL]	MIC (Staphylococcus aureus) [µg/mL]
COc1cc(/C=C/C(=O)NCCc2ccc(O)cc2)cc(OC)c1O [TRANS-N-SINAPOYLTYRAMINE]	Active								62.5 (≈ 182 µM)	62.5 (≈ 182 µM)
COC(=O)[C@H](Cc1c[nH]c2ccccc12)NC(=O)/C=C/c1ccc(O)c(OC)c1		30.9	26.4	17.4	9.76	14.5	7.96			
COc1cc(/C=C/C(=O)O)ccc1O [FERULATE]	Active	44.3	36.7	25.1	13.8	21	12.6		125 (≈ 644 µM)	125 (≈ 644 µM)
COC(=O)[C@H](Cc1ccc(O)cc1)NC(=O)/C=C/c1ccc(O)c(OC)c1		29.2	24.8	16.2	8.79	13.7	7.04			15 (≈ 40.4 µM)
NC[C@H]1O[C@H](O[C@H]2[C@H](O)[C@@H](O[C@H]3O[C@H](CO)[C@@H](O)[C@H](N)[C@H]3O)[C@H](N)C[C@@H]2N)[C@H](N)C[C@@H]1O [TOBRAMYCIN]									7.81 (≈ 16.7 µM)	15.6 (≈ 33.4 µM)
COC(=O)[C@H](Cc1c[nH]c2ccccc12)NC(=O)/C=C/c1ccc(O)c(O)c1	Active	87.9	80.1	50.4	28.7	44.6	27.1		250 (≈ 657 µM)	
COC(=O)[C@H](Cc1ccc(O)cc1)NC(=O)/C=C/c1ccccc1		2.57	2.12	2.3	2.12	2.05	1.74			
COC(=O)[C@H](Cc1c[nH]c2ccccc12)NC(=O)/C=C/c1cc(OC)c(O)c(OC)c1		49.9	48.1	27.3	14.6	26	13.7		250 (≈ 589 µM)	
COc1cc(/C=C/C(=O)NCCc2c[nH]c3ccccc23)cc(OC)c1O									62.5 (≈ 171 µM)	250 (≈ 682 µM)
COc1cc(/C=C/C(=O)O)cc(OC)c1O [SINAPINATE]	Active	69.6	69	31.9	17.2	26.5	16.1		125 (≈ 558 µM)	125 (≈ 558 µM)
O=C(O)/C=C/c1ccc(O)cc1 [COUMARIC ACID]	Not Active	6.1	4.5	4.7	2.9	3.7	2.1	Active		
COc1cc(/C=C/C(=O)NCCc2ccc(O)c(O)c2)ccc1O [N-TRANS-FERULOYLDOPAMINE]									125 (≈ 380 µM)	62.5 (≈ 190 µM)
COC(=O)[C@H](Cc1ccccc1)NC(=O)/C=C/c1ccc(O)c(O)c1 [N-CAFFEOYL-PHENYLALANINE METHYL ESTER]	Active	90.5	90.3	54.6	29.7	53.5	28.8			
COC(=O)[C@H](Cc1c[nH]c2ccccc12)NC(=O)/C=C/c1ccccc1		1.48	1.18	1.41	0.69	1.2	0.79			
O=C(/C=C/c1ccc(O)cc1)NCCc1ccc(O)c(O)c1								Active		
COC(=O)[C@H](Cc1ccc(O)c(O)c1)NC(=O)/C=C/c1ccc(O)c(OC)c1		87	83.8	50.6	28.5	44.8	24.3			125 (≈ 323 µM)
COC(=O)[C@H](Cc1c[nH]c2ccccc12)NC(=O)/C=C/c1ccc(O)cc1		2.88	2.42	2.37	2.13	1.69	1.92			
O=C(/C=C/c1ccc(O)cc1)NCCc1ccc(O)cc1								Active		
